Assay: SERS monitoring of boronic acid derivative binding to diol-modified SERS substrate (flow cell)
Text: During the experiments, one type of gold nanostructured SERS substrates were applied. Hereto, a bare SiO2 substrate was cleaned prior to the deposition of polystyrene beads with a diameter of 100 nm (obtained from Thermo Fisher Scientific). Due to electrostatic forces, the nanoparticles form a closed-packed layer on the SiO2 substrate. Then, the substrate was carefully rinsed with H2O. Afterwards, a thin layer of Au (˜50 nm) was deposited onto the polystyrene-coated SiO2 substrate using sputter deposition. The as such obtained SERS substrates were cleaned with an aceton-H2O mixture and dried with a stream of N2. Additionally, the samples were cleaned using UV-O3 treatment for 15 min prior to the experiments.
The SERS substrates were immerged into a solution containing 1 mM thiolated glucose for 3 days at room temperature in the dark (i.e. 1-Thio-β-D-glucose sodium salt dihydrate obtained from Toronto Research Chemicals). […]
The SERS substrates functionalized with the thiolated glucose molecules were mounted into a home-made flow cell connected to a peristaltic pump system. […] The corresponding Raman signal was monitored using a Raman setup of LabRAM. […] FIG. 5 represents the SERS intensity monitored at 1075±1 cm^−1 using a time interval of 25 s. […] The response was also measured in real time as represented in FIG. 8. […]

## OB(O)c1ccccc1 [PBA, Phenyl boronic acid]
1 mM PBA in carbonate buffer, 785 nm, 0.5 mW, 25 s interval
  SERS intensity at 1075±1 cm^−1 (PBA binding to immobilized thiolated glucose): an increase of the signal is obtained over time
Human serum albumin 2000 mg/dl in carbonate mixed 1/1 with 1 mM PBA
  SERS response of PBA interacting with immobilized thiolated glucose in presence of human serum albumin: a clear SERS response
